The text below walks through data of PubChem BioAssay AID330 (DTP/NCI, 2004).

In this experiment the test system is P388 leukemia ip, CD2F1 mice, survival T/C. The experiment in a line: NCI In Vivo Anticancer Drug Screen. Data for tumor model P388 Leukemia (intraperitoneal) in CD2F1 (CDF1) mice. Conditions: endpoint: median survival time, higher = longer survival. A digest of the protocol: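 Mice carrying the transplanted tumor received test compound or vehicle. Survival was recorded in each group, and the value is the treated-group measurement divided by that of the vehicle-treated control group.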

Setting [1] is: dose: 60.0 mg/kg/injection, schedule: Q01DX005 (ip), vehicle: saline with Tween-80.
[2] abbreviates: dose: 120.0 mg/kg/injection, schedule: Q01DX005 (ip), vehicle: saline with Tween-80.
The mark [3] stands for this setting: dose: 50.0 mg/kg/injection, schedule: Q01DX005 (ip), vehicle: Klucel (hydroxypropylcellulose) (HPC).
[4] abbreviates: dose: 100.0 mg/kg/injection, schedule: Q01DX005 (ip), vehicle: Klucel (hydroxypropylcellulose) (HPC).
The mark [5] stands for this setting: dose: 200.0 mg/kg/injection, schedule: Q01DX005 (ip), vehicle: Klucel (hydroxypropylcellulose) (HPC).
The mark [6] stands for this setting: dose: 6.25 mg/kg/injection, schedule: Q01DX005 (ip), vehicle: saline with Tween-80.
Setting [7] is: dose: 100.0 mg/kg/injection, schedule: Q01DX005 (ip), vehicle: saline with Tween-80.
The mark [8] stands for this setting: dose: 200.0 mg/kg/injection, schedule: Q01DX005 (ip), vehicle: saline with Tween-80.
The mark [9] stands for this setting: dose: 50.0 mg/kg/injection, schedule: Q01DX005 (ip), vehicle: saline with Tween-80.
[10] abbreviates: dose: 50.0 mg/kg/injection, schedule: Q01DX009 (ip), vehicle: Klucel (hydroxypropylcellulose) (HPC).
The mark [11] stands for this setting: dose: 100.0 mg/kg/injection, schedule: Q01DX009 (ip), vehicle: Klucel (hydroxypropylcellulose) (HPC).
Setting [12] is: dose: 12.5 mg/kg/injection, schedule: Q01DX009 (ip), vehicle: Klucel (hydroxypropylcellulose) (HPC).
Where [13] appears, read: dose: 25.0 mg/kg/injection, schedule: Q01DX009 (ip), vehicle: Klucel (hydroxypropylcellulose) (HPC).
Setting [14] is: dose: 100.0 mg/kg/injection, schedule: Q04DX002 (ip), vehicle: saline with Tween-80.
[15] abbreviates: dose: 200.0 mg/kg/injection, schedule: Q04DX002 (ip), vehicle: saline with Tween-80.
Setting [16] is: dose: 400.0 mg/kg/injection, schedule: Q04DX002 (ip), vehicle: saline with Tween-80.

SMILES strings stand for the structures. “And” between values parts separate entries of the source, which are not always exact repeats. Equal entries are not always repeated. Toxic doses and inconclusive results are not listed.

For `CCc1cccc(CC)c1N1C(=O)COCC1=O`, the T/C (dose: 6.25 mg/kg/injection, schedule: Q01DX009 (ip), vehicle: saline) is 96 % of control; the T/C (dose: 12.5 mg/kg/injection, schedule: Q01DX009 (ip), vehicle: saline) was 93 % of control; the T/C (dose: 25.0 mg/kg/injection, schedule: Q01DX009 (ip), vehicle: saline) is 92 % of control; the T/C (dose: 100.0 mg/kg/injection, schedule: Q01DX009 (ip), vehicle: saline) was 100 % of control; the T/C (dose: 200.0 mg/kg/injection, schedule: Q01DX009 (ip), vehicle: saline) was 100 % of control.

On to `O=c1cc(C(F)(F)F)c2cc3c(cc2o1)NCCC3`, for which the T/C is 89 % of control under setting [1] and 86 % of control under setting [2].

Turning to `CCCSc1ccc2nc(NC(=O)OC)[nH]c2c1`, the T/C under setting [1] is 106 % of control and 111 % of control; the T/C under setting [2] is 109 % of control and 112 % of control; the T/C (dose: 480.0 mg/kg/injection, schedule: Q01DX005 (ip), vehicle: saline with Tween-80) is 156 % of control.

Turning to `Cn1c2c(F)cccc2c(=O)c2c(O)cc3c(c21)C=CC(C)(C)O3`, the T/C is 96 % of control under setting [3], 91 % of control under setting [4] and 94 % of control under setting [5].

`Cc1ccc(N2CC(O)CN(c3ccc(C)cc3)CC(O)C2)cc1` (centres undefined): the T/C runs as follows: under setting [1], 97 % of control; under setting [2], 97 % of control; (dose: 240.0 mg/kg/injection, schedule: Q01DX005 (ip), vehicle: saline with Tween-80) 94 % of control.

As to `COc1ccc(Cc2cc3c(cc2OCC(=O)NN)OCO3)cc1`, the T/C was 89 % of control under setting [3], 88 % of control under setting [4] and 91 % of control under setting [5].

As to `Cc1cc(C)c(C#N)c(SCC#CCSc2nc(C)cc(C)c2C#N)n1`, the T/C (dose: 1.5 mg/kg/injection, schedule: Q01DX005 (ip), vehicle: saline with Tween-80) is 103 % of control; the T/C (dose: 3.0 mg/kg/injection, schedule: Q01DX005 (ip), vehicle: saline with Tween-80) is 103 % of control; the T/C (dose: 6.0 mg/kg/injection, schedule: Q01DX005 (ip), vehicle: saline with Tween-80) is 94 % of control; the T/C under setting [6] was 89 % of control; the T/C under setting [7] is 91 % of control; the T/C under setting [8] is 91 % of control.

As to `Clc1ccc2c(NCCCCCCNc3ccnc4cc(Cl)ccc34)ccnc2c1`, the T/C runs as follows: under setting [6], 97 % of control; (dose: 12.5 mg/kg/injection, schedule: Q01DX005 (ip), vehicle: saline with Tween-80) 90 % of control; (dose: 25.0 mg/kg/injection, schedule: Q01DX005 (ip), vehicle: saline with Tween-80) 99 % of control; under setting [9], 100 % of control; under setting [7], 109 % of control.

For the compound `[O-]c1nn(-c2ccccc2)n[n+]1-c1ccccc1`, the T/C (dose: 100.0 mg/kg/injection, schedule: Q01DX001 (ip), vehicle: Klucel (hydroxypropylcellulose) (HPC)) is 97 % of control; the T/C (dose: 200.0 mg/kg/injection, schedule: Q01DX001 (ip), vehicle: Klucel (hydroxypropylcellulose) (HPC)) was 100 % of control; the T/C (dose: 400.0 mg/kg/injection, schedule: Q01DX001 (ip), vehicle: Klucel (hydroxypropylcellulose) (HPC)) is 94 % of control.

For `O=C(/C=C/c1ccc(Cl)c(Cl)c1)C1CCCCC1`, the T/C by setting is: under setting [10], 103 % of control; under setting [11], 99 % of control.

With `S=C(SSC(=S)C1CCCC1=NC1CCCCC1)C1CCCC1=NC1CCCCC1` (centres undefined), the T/C is, setting by setting: under setting [10], 101 % of control; under setting [11], 108 % of control; (dose: 200.0 mg/kg/injection, schedule: Q01DX009 (ip), vehicle: Klucel (hydroxypropylcellulose) (HPC)) 108 % of control.

For the compound `CCC[CH2][Sn]([CH2]CCC)[S]CC(N)C(=O)O` (centres undefined), the T/C reads like this: (dose: 0.16 mg/kg/injection, schedule: Q01DX005 (ip), vehicle: Klucel (hydroxypropylcellulose) (HPC)) 107 % of control; (dose: 0.23 mg/kg/injection, schedule: Q01DX005 (ip), vehicle: Klucel (hydroxypropylcellulose) (HPC)) 108 % of control; (dose: 0.46 mg/kg/injection, schedule: Q01DX005 (ip), vehicle: Klucel (hydroxypropylcellulose) (HPC)) 103 % of control and 104 % of control; (dose: 0.93 mg/kg/injection, schedule: Q01DX005 (ip), vehicle: Klucel (hydroxypropylcellulose) (HPC)) 117 % of control; (dose: 3.75 mg/kg/injection, schedule: Q01DX005 (ip), vehicle: Klucel (hydroxypropylcellulose) (HPC)) 108 % of control.

As to `COc1cccc2c1C(=O)c1c(O)c3c(c(O)c1C2=N)C[C@@](O)(C(C)=O)CC3OC1CC(N(Cc2ccccc2)Cc2ccccc2)C(O)C(C)O1` (some centres undefined), the T/C reads like this: (dose: 12.5 mg/kg/injection, schedule: Q04DX003 (ip), vehicle: saline with Tween-80) 102 % of control; (dose: 25.0 mg/kg/injection, schedule: Q04DX003 (ip), vehicle: saline with Tween-80) 98 % of control; (dose: 50.0 mg/kg/injection, schedule: Q04DX003 (ip), vehicle: saline with Tween-80) 102 % of control and 123 % of control; (dose: 100.0 mg/kg/injection, schedule: Q04DX003 (ip), vehicle: saline with Tween-80) 111 % of control and 122 % of control; (dose: 200.0 mg/kg/injection, schedule: Q04DX003 (ip), vehicle: saline with Tween-80) 124 % of control; (dose: 400.0 mg/kg/injection, schedule: Q04DX003 (ip), vehicle: saline with Tween-80) 106 % of control.

As to `O=c1oc(-c2ccco2)ns1`, the T/C runs as follows: under setting [12], 97 % of control; under setting [13], 110 % of control; under setting [10], 97 % of control.

Turning to `CCN1C(=O)NC(=O)C(CC)(N2CCCCC2)C1=O` (centres undefined), the T/C is 111 % of control under setting [3], 98 % of control under setting [4] and 104 % of control under setting [5].

With `S=C(Nc1ccc(N=Nc2ccccc2)cc1)SCc1ccc2c(c1)OCO2`, the T/C runs as follows: (dose: 50.0 mg/kg/injection, schedule: Q01DX009 (ip), vehicle: suspension in saline) 96 % of control; (dose: 100.0 mg/kg/injection, schedule: Q01DX009 (ip), vehicle: suspension in saline) 90 % of control; (dose: 200.0 mg/kg/injection, schedule: Q01DX009 (ip), vehicle: suspension in saline) 92 % of control.

Regarding `O=C1C(C(=Nc2ccc(Br)cc2)c2ccccc2)=C(O)c2ccccc21`, the T/C is, setting by setting: (dose: 25.0 mg/kg/injection, schedule: Q04DX002 (ip), vehicle: saline with Tween-80) 93 % of control; (dose: 50.0 mg/kg/injection, schedule: Q04DX002 (ip), vehicle: saline with Tween-80) 99 % of control; under setting [14], 92 % of control.

For the compound `COc1cc(C=Nc2ccc(-n3ccnc3C)cc2)ccc1N(CCCl)CCCl`, the T/C by setting is: (dose: 5.0 mg/kg/injection, schedule: Q01DX009 (ip), vehicle: Klucel (hydroxypropylcellulose) (HPC)) 170 % of control; (dose: 10.0 mg/kg/injection, schedule: Q01DX009 (ip), vehicle: Klucel (hydroxypropylcellulose) (HPC)) 181 % of control; (dose: 20.0 mg/kg/injection, schedule: Q01DX009 (ip), vehicle: Klucel (hydroxypropylcellulose) (HPC)) 106 % of control.

Turning to `CCCN1C[C@H](CSC)C[C@@H]2c3cccc4[nH]cc(c34)C[C@H]21`, the T/C is 103 % of control (dose: 6.25 mg/kg/injection, schedule: Q01DX009 (ip), vehicle: Klucel (hydroxypropylcellulose) (HPC)); 101 % of control under setting [12]; 99 % of control under setting [13].

Consider `CCOP(=O)(O)OCC.[Ga]`, for which the T/C by setting is: under setting [14], 106 % of control; under setting [15], 103 % of control; under setting [16], 97 % of control.

Turning to `Cc1ccc(O)c(C(=NCCCCN=C(c2ccccc2)c2cc(C)ccc2O)c2ccccc2)c1`, the T/C was 99 % of control under setting [3], 94 % of control under setting [4] and 99 % of control under setting [5].

Regarding `O=C(NCCCC1NC(=O)/C(=C(O)/C=C/C2CCCCC2)C1=O)OCc1ccccc1` (centres undefined), the T/C under setting [9] is 100 % of control, the T/C under setting [7] is 95 % of control and the T/C under setting [8] was 100 % of control.

For the compound `O=S1(=O)c2ccccc2N(c2ccccc2)c2nnc(-c3ccccc3)n21`, the T/C was 93 % of control under setting [14], 92 % of control under setting [15] and 92 % of control under setting [16].
